Assay results taken from ChEMBL document CHEMBL3991601, “The target landscape of clinical kinase drugs” (Science, 2017).
Calls of active or inactive are those of the source. For most assays here, no stated cut-off is given here; in the data, actives have a measured Kd and inactives only a lower limit.

Assays:
[1] = target: RAC-gamma serine/threonine-protein kinase (Homo sapiens, UniProt Q9Y243)
[2] = target: Chromodomain-helicase-DNA-binding protein 4 (Homo sapiens, UniProt Q14839)
[3] = target: Citron Rho-interacting kinase (Homo sapiens, UniProt O14578)
Chain of Citron Rho-interacting kinase (O14578 whole entry, the tested form may be a part): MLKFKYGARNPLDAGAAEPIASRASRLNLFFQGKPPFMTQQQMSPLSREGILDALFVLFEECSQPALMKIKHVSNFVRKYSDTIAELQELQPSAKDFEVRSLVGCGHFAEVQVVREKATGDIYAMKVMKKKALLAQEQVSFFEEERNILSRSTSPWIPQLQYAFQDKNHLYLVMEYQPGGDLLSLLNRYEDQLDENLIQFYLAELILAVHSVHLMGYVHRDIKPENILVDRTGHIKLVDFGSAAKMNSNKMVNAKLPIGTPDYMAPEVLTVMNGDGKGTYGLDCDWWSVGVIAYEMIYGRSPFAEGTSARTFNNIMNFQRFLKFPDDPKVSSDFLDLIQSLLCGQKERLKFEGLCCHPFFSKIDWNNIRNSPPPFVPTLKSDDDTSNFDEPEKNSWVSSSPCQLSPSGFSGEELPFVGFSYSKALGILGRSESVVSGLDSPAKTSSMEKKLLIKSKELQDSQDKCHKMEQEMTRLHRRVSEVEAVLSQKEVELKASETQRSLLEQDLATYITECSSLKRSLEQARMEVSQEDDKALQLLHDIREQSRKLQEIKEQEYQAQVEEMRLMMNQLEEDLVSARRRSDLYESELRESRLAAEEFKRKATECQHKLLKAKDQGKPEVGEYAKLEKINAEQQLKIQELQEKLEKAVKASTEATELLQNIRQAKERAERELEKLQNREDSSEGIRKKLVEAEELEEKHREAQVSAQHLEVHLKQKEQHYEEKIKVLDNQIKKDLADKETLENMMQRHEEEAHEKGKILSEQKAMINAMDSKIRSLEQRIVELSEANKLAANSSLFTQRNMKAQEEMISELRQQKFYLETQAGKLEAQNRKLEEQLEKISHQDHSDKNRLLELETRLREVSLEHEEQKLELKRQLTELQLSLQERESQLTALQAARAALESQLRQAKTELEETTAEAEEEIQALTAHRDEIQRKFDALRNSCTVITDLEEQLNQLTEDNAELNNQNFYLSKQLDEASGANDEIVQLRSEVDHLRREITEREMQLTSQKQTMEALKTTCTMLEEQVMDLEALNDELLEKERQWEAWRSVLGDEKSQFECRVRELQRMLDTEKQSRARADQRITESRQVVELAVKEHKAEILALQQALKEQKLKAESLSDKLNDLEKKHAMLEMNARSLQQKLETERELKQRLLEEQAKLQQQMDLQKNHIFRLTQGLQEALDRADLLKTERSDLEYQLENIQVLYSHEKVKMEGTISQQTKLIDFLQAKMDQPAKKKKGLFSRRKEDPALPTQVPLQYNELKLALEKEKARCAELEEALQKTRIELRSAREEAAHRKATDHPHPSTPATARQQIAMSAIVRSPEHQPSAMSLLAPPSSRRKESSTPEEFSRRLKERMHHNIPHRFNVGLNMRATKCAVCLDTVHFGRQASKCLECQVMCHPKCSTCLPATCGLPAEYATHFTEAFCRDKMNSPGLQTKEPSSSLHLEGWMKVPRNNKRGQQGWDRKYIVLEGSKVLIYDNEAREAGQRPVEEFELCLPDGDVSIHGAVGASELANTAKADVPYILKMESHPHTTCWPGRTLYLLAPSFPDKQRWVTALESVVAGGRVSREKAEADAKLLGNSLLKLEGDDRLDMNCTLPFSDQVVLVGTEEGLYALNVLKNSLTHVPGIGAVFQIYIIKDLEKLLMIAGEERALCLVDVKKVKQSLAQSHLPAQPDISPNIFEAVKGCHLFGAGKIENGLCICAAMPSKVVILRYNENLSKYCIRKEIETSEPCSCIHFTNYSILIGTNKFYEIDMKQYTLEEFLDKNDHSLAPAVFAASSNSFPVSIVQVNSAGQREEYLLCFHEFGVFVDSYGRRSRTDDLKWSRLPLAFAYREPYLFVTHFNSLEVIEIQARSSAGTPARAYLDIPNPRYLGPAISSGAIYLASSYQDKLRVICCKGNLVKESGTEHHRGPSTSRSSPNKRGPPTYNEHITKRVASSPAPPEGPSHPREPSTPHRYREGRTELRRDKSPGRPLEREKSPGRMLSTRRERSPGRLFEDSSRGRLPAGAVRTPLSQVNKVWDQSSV

[4] = target: Epithelial discoidin domain-containing receptor 1 (Homo sapiens, UniProt Q08345)
Chain of Epithelial discoidin domain-containing receptor 1 (Q08345 whole entry, the tested form may be a part): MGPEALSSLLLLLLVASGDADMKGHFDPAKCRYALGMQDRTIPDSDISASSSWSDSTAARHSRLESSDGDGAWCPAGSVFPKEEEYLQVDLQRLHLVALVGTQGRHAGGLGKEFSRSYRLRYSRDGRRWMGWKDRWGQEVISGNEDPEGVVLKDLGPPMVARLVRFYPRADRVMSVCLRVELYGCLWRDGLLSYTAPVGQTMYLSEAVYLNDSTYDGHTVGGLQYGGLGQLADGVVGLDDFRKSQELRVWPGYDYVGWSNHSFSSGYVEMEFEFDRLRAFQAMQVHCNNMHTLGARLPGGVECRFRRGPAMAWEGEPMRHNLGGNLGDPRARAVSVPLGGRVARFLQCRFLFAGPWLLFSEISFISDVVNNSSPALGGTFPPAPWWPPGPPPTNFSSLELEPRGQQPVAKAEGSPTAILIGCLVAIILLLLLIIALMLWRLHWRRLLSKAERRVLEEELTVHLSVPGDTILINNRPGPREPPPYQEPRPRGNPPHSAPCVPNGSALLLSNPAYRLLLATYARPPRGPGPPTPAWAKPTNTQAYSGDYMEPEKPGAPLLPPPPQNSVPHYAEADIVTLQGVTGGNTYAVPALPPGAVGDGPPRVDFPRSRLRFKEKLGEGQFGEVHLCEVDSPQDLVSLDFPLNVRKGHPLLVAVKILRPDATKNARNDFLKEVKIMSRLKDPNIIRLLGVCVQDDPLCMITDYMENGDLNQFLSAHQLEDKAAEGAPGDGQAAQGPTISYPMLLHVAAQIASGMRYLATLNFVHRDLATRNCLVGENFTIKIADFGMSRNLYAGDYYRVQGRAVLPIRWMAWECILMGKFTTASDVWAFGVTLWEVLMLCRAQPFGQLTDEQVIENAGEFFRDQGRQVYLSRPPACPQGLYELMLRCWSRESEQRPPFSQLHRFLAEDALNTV

Ephrin type-A receptor 1 = target: T1, Ephrin type-A receptor 1 (Homo sapiens, UniProt P21709)
T1 sequence (P21709 whole entry): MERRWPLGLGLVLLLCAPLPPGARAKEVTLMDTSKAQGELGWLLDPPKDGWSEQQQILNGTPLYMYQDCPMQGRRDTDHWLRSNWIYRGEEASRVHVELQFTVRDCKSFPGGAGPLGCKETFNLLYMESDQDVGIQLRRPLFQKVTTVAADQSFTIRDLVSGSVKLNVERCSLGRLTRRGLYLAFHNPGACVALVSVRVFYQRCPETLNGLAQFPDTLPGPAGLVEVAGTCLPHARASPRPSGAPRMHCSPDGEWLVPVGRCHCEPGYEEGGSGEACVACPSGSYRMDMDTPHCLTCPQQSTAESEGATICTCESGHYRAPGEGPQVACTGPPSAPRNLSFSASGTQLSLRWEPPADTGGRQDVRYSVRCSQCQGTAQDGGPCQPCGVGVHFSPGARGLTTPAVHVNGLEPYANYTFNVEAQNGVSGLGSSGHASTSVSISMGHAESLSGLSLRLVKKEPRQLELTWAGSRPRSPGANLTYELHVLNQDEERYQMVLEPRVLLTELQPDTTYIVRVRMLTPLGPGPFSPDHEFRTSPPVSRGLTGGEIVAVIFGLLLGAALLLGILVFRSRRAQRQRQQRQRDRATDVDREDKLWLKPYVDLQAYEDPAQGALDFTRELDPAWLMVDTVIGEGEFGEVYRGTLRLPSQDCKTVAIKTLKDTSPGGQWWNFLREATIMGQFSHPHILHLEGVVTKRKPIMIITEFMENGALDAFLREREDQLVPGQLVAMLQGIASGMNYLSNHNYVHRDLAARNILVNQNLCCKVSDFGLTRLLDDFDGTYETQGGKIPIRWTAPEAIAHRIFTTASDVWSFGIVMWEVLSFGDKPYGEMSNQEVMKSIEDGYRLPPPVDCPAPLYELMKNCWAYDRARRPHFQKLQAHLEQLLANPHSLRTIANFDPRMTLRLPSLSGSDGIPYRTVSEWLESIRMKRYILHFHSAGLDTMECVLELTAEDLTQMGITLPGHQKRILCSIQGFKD

Ephrin type-A receptor 2 = Ephrin type-A receptor 2 (Homo sapiens, UniProt P29317)
Chain of Ephrin type-A receptor 2 (P29317 whole entry): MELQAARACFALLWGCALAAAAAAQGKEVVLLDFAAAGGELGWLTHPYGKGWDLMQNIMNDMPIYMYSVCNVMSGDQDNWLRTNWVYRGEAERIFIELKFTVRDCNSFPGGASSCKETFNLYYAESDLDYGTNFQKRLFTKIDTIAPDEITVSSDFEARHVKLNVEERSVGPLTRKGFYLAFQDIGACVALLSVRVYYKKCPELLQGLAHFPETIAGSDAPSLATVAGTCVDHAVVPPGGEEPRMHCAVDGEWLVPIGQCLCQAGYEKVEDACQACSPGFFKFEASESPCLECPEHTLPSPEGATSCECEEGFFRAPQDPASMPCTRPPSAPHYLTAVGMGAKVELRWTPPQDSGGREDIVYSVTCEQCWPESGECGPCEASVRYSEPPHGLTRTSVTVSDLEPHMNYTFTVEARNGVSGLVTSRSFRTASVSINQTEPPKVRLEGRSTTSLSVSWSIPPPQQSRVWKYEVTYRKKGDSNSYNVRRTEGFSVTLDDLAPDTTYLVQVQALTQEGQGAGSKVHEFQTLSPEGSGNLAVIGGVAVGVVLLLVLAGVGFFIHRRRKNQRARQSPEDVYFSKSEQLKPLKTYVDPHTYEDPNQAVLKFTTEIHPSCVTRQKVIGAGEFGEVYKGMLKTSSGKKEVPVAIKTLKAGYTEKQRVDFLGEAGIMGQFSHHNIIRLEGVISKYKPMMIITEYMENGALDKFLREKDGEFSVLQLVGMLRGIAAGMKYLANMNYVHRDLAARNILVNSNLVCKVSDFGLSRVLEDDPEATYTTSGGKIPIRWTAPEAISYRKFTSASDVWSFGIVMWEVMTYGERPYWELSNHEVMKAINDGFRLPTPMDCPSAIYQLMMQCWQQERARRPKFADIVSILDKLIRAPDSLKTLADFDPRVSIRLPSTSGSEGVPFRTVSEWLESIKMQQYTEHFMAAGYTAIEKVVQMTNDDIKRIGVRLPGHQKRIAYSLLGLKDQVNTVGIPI

[5] = target: Tyrosine-protein kinase Lck (Homo sapiens, UniProt P06239)
Chain of Tyrosine-protein kinase Lck (P06239 whole entry): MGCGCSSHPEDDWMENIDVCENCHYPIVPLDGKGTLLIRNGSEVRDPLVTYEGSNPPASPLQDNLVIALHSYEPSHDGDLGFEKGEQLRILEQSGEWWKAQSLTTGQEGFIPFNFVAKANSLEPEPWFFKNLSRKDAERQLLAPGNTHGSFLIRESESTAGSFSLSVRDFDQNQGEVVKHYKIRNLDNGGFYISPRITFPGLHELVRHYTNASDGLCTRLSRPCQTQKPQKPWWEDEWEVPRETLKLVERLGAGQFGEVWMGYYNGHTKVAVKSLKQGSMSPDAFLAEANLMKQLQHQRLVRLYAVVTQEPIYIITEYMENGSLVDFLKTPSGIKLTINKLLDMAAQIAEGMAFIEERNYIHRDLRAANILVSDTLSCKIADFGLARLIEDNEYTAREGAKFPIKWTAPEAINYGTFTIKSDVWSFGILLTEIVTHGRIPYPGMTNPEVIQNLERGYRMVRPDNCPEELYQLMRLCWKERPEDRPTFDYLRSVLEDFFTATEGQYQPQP

[6] = target: Myosin light chain kinase, smooth muscle (Homo sapiens, UniProt Q15746)
[7] = target: T2, Serine/threonine-protein kinase Nek3 (Homo sapiens, UniProt P51956)
T2 sequence (P51956 whole entry): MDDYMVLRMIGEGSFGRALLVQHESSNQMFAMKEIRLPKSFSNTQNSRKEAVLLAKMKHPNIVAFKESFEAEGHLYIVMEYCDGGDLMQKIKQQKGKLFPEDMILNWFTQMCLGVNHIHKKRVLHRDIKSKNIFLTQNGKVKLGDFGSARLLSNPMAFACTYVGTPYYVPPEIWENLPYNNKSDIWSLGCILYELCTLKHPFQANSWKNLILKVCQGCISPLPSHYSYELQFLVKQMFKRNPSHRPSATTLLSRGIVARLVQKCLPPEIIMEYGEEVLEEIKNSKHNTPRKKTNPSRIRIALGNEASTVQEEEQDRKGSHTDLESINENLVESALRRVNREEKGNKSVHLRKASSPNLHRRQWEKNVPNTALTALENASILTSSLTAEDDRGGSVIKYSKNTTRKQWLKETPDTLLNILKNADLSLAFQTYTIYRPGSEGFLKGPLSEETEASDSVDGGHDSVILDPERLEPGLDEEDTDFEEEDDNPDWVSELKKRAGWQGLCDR

[8] = target: T3, Ribosyldihydronicotinamide dehydrogenase [quinone] (Homo sapiens, UniProt P16083)
T3 sequence (P16083 whole entry): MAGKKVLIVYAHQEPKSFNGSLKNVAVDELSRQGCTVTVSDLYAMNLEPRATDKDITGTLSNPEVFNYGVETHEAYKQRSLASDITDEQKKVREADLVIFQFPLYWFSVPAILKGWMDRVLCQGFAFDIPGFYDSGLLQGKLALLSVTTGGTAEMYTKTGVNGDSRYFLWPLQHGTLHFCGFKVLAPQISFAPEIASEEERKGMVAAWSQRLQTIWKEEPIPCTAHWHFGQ

[9] = target: T4, Phosphatidylinositol 5-phosphate 4-kinase type-2 gamma (Homo sapiens, UniProt Q8TBX8)
T4 sequence (Q8TBX8 whole entry): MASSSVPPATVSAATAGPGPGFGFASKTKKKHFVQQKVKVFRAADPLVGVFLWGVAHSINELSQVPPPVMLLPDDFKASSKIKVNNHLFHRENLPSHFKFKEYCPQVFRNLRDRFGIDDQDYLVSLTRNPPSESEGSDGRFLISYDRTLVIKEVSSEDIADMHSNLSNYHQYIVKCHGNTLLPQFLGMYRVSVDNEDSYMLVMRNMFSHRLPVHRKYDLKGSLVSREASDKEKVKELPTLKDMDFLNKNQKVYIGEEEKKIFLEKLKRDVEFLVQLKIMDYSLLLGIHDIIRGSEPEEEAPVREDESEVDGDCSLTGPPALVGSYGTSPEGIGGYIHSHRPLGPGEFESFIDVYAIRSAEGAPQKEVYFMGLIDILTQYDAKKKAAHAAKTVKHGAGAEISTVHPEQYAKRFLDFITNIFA

[10] = target: Mitogen-activated protein kinase kinase kinase 20 (Homo sapiens, UniProt Q9NYL2)

Chain of RAC-gamma serine/threonine-protein kinase (Q9Y243 whole entry): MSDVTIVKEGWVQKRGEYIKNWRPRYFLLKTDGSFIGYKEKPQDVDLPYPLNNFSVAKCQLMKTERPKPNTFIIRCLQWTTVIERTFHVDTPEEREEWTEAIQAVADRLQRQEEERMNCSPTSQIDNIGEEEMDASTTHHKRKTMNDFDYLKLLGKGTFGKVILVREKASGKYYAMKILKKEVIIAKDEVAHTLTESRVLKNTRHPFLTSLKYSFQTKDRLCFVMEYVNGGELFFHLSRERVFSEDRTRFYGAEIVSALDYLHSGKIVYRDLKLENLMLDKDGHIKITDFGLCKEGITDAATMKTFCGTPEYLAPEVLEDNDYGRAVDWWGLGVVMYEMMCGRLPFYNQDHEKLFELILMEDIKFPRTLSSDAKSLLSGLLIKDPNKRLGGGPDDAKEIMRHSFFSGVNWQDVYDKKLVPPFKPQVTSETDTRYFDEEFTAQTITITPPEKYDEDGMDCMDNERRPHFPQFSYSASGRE

Compound | Kd [1] | Kd [2] | Kd [3] | Kd [4] | Kd (Ephrin type-A receptor 1) | Kd (Ephrin type-A receptor 2) | Kd [5] | Kd [6] | Kd [7] | Kd [8] | Kd [9] | Kd [10]
O=c1[nH]ccc2cc(OC3CCNCC3)ccc12 [SAR-407899 FREE BASE] | > 30 µM (inactive) | > 30 µM (inactive) | > 30 µM (inactive) | > 30 µM (inactive) | > 30 µM (inactive) | > 30 µM (inactive) | > 30 µM (inactive) | > 30 µM (inactive) | > 30 µM (inactive) | > 30 µM (inactive) | > 30 µM (inactive) | > 30 µM (inactive)
CO[C@H]1C[C@@H]2CC[C@@H](C)[C@@](O)(O2)C(=O)C(=O)N2CCCC[C@H]2C(=O)O[C@H]([C@H](C)C[C@@H]2CC[C@@H](O)[C@H](OC)C2)CC(=O)[C@H](C)/C=C(\C)[C@@H](O)[C@@H](OC)C(=O)[C@H](C)C[C@H](C)/C=C/C=C/C=C/1C [SIROLIMUS] | > 30 µM (inactive) | > 30 µM (inactive) | > 30 µM (inactive) | > 30 µM (inactive) | > 30 µM (inactive) | > 30 µM (inactive) | > 30 µM (inactive) | > 30 µM (inactive) | > 30 µM (inactive) | > 30 µM (inactive) | > 30 µM (inactive) | > 30 µM (inactive)
CO[C@H]1C[C@@H]2CC[C@@H](C)[C@@](O)(O2)C(=O)C(=O)N2CCCC[C@H]2C(=O)O[C@H]([C@H](C)C[C@@H]2CC[C@@H](OC(=O)C(C)(CO)CO)[C@H](OC)C2)CC(=O)[C@H](C)/C=C(\C)[C@@H](O)[C@@H](OC)C(=O)[C@H](C)C[C@H](C)/C=C/C=C/C=C/1C [TEMSIROLIMUS] | > 30 µM (inactive) | > 30 µM (inactive) | > 30 µM (inactive) | > 30 µM (inactive) | > 30 µM (inactive) | > 30 µM (inactive) | > 30 µM (inactive) | > 30 µM (inactive) | > 30 µM (inactive) | > 30 µM (inactive) | > 30 µM (inactive) | > 30 µM (inactive)
COc1cc2c(Nc3ccc(Cl)c(Cl)c3F)ncnc2cc1OC[C@@H]1C[C@@H]2CN(C)C[C@@H]2C1 [TESEVATINIB] | > 30 µM (inactive) | > 30 µM (inactive) | > 30 µM (inactive) | 0.073 µM (active) | 0.008 µM (active) | 0.501 µM (active) | 0.207 µM (active) | > 30 µM (inactive) | > 30 µM (inactive) | > 30 µM (inactive) | > 30 µM (inactive) | > 30 µM (inactive)
O=C(Cc1ccc(-c2ccc(OCCN3CCOCC3)cc2)cn1)NCc1ccccc1 [TIRBANIBULIN] | > 30 µM (inactive) | > 30 µM (inactive) | > 30 µM (inactive) | > 30 µM (inactive) | > 30 µM (inactive) | > 30 µM (inactive) | > 30 µM (inactive) | > 30 µM (inactive) | > 30 µM (inactive) | > 30 µM (inactive) | > 30 µM (inactive) | > 30 µM (inactive)
C[C@@H](NC(=O)c1ncnc(N)c1Cl)c1ncc(C(=O)Nc2cc(C(F)(F)F)c(Cl)cn2)s1 [TOVORAFENIB] | > 30 µM (inactive) | > 30 µM (inactive) | > 30 µM (inactive) | 0.063 µM (active) | 1.07 µM | 0.807 µM (active) | > 30 µM (inactive) | 4.41 µM | > 30 µM (inactive) | > 30 µM (inactive) | > 30 µM (inactive) | 0.45 µM (active)
Cc1cc(Nc2ncnc3ccc(NC4=NC(C)(C)CO4)cc23)ccc1Oc1ccn2ncnc2c1 [TUCATINIB] | > 30 µM (inactive) | > 30 µM (inactive) | > 30 µM (inactive) | > 30 µM (inactive) | > 30 µM (inactive) | > 30 µM (inactive) | > 30 µM (inactive) | > 30 µM (inactive) | > 30 µM (inactive) | 2.46 µM (active) | > 30 µM (inactive) | > 30 µM (inactive)
CN1C/C=C/CCOc2cccc(c2)-c2ccnc(n2)Nc2cccc(c2)C1 [ZOTIRACICLIB] | > 30 µM (inactive) | > 30 µM (inactive) | > 30 µM (inactive) | > 30 µM (inactive) | > 30 µM (inactive) | > 30 µM (inactive) | > 30 µM (inactive) | > 30 µM (inactive) | > 30 µM (inactive) | > 30 µM (inactive) | > 30 µM (inactive) | > 30 µM (inactive)

Continued, values first:

Kd [1] | Kd [2] | Kd [3] | Kd [4] | Kd (Ephrin type-A receptor 1) | Kd (Ephrin type-A receptor 2) | Kd [5] | Kd [6] | Kd [7] | Kd [8] | Kd [9] | Kd [10] | Compound
> 30 µM (inactive) | > 30 µM (inactive) | > 30 µM (inactive) | > 30 µM (inactive) | > 30 µM (inactive) | > 30 µM (inactive) | > 30 µM (inactive) | > 30 µM (inactive) | > 30 µM (inactive) | 2.36 µM (active) | > 30 µM (inactive) | > 30 µM (inactive) | Cn1cc(-c2cnn3c(N)c(Br)c([C@@H]4CCCNC4)nc23)cn1 [SCH-900776]
> 30 µM (inactive) | > 30 µM (inactive) | > 30 µM (inactive) | 13.8 µM (active) | > 30 µM (inactive) | 0.178 µM (active) | 0.105 µM (active) | > 30 µM (inactive) | > 30 µM (inactive) | 88.9 µM (active) | > 30 µM (inactive) | > 30 µM (inactive) | CCS(=O)(=O)c1cccc(-c2cc(C(=O)NC3CCN(C)CC3)c(C)c3[nH]c4ncc(C)cc4c23)c1 [TAK-901]
> 30 µM (inactive) | > 30 µM (inactive) | 0.033 µM (active) | > 30 µM (inactive) | > 30 µM (inactive) | > 30 µM (inactive) | > 30 µM (inactive) | > 30 µM (inactive) | > 30 µM (inactive) | > 30 µM (inactive) | > 30 µM (inactive) | > 30 µM (inactive) | C[C@@H](N)c1ccc(C(=O)Nc2ccnc3[nH]ccc23)cc1 [Y-39983]
